Measurements published in US7282492B2, “Insecticidal composition having improved storage stability” (priority 2001, dated 2007).

Assay: Storage stability of Dimethoate emulsifiable concentrates Ia, Ib, Ic (Example 1)
Assay type: physicochemical
Settings: stored 14 days at 54° C.; Table 1
Experimental: Three emulsifiable concentrates (Ia, Ib and Ic) containing. Dimethoate were prepared by mixing the components listed below in the amounts stated. Said amounts are parts by weight.
The formulations Ia and Ib are not according to the invention but serve as comparison examples to formulation Ic (according to the invention).
The formulations were stored at different temperatures for various periods of time, whereupon the pro rata share of Dimethoate degradation was determined.

For O=C1C=CC(=O)O1 [maleic anhydride], the “Stabilization of Dimethoate relative to acetic anhydride” value was “twice as effectively”.
